Laboratory results from patent US7999137B2, “Pesticide bi-phenyl-amidine derivatives” (Bayer Cropscience AG, priority 2006, dated 2011).
Like-named read-outs stand apart in the source and are kept apart here.

Assay: logP by HPLC on reversed-phase column (C 18), EEC Directive 79/831 Annex V.A8
Type: physicochemical
Details: 40° C., 0.1% aqueous formic acid and acetonitrile; for chromatographic logP: reversed-phase HPLC column (C 18)
Protocol: Temperature: 40° C.; Mobile phases: 0.1% aqueous formic acid and acetonitrile; linear gradient from 10% acetonitrile to 90% acetonitrile.
Calibration was carried out using unbranched alkan-2-ones (comprising 3 to 16 carbon atoms) with known logP values (determination of the logP values by the retention times using linear interpolation between two successive alkanones).

[1] = HPLC reversed-phase C 18, linear gradient 10% to 90% acetonitrile
[2] = HPLC reversed-phase C 18, linear gradient 10% to 90% acetonitrile, read-out: log p (HCOOH)
[3] = pH 2.3, HPLC, read-out: log P (pH 2.3)

Row | Structure (SMILES) | log p (HCOOH) [1] | further results
1 | CCN(C)C=Nc1cc(C)c(-c2ccc(OC(C)(C)C)cc2)cc1C [Compound 160] | 2.28 | –
2 | CCN(C)C=Nc1cc(C)c(-c2ccc(F)cc2)cc1C [Compound 22] | 1.95 | –
3 | CCN(C)C=Nc1ccc(-c2ccc(OC)c(OC)c2OC)cc1C(F)(F)F [Compound 11] | 1.84 | –
4 | CCN(C)C=Nc1ccc(-c2ccc(F)c(C)c2)cc1C(F)(F)F [Compound 82] | 2.20 | –
5 | CCN(C)C=Nc1ccc(-c2ccc(F)cc2)cc1Cl [Compound 13] | 1.69 | –
6 | CCN(C)C=Nc1ccc(-c2ccc(OC)c(OC)c2)cc1C [Compound 38] | 1.49 | –
7 | Cc1cc(-c2ccc(C(C)(C)C)cc2)c(C)cc1N=C1CCCN1 [Compound 120] | 2.53 | –
8 | CCN(C)C=Nc1ccc(-c2cc(OC)c(OC)c(OC)c2)cc1C(F)(F)F [Compound 75] | 1.79 | –
9 | CCN(C)C=Nc1cc(C)c(-c2ccc(C#N)cc2)cc1C [Compound 136] | 1.54 | –
10 | CCN(C)C=Nc1ccc(-c2cc(OC)c(OC)c(OC)c2)cc1C [Compound 29] | 1.56 | –
11 | CCN(C)C=Nc1cc(C)c(-c2ccc(C(F)(F)F)c(Cl)c2)cc1C [Compound 142] | 2.59 | –
12 | CCN(C)C=Nc1cc(C)c(-c2ccc(C3CCCC3)cc2)cc1C [Compound 167] | 2.94 | –
13 | Cc1cc(-c2ccc(C(C)(C)C)cc2)c(C)cc1N=CN1CCCC1 [Compound 119] | 2.79 | –
14 | CCN(C)C=Nc1ccc(-c2ccc(C=NOC)cc2)cc1C [Compound 30] | 1.94 | –
15 | CCc1cc(-c2ccc(F)c(C)c2)ccc1N=CN(C)CC [Compound 55] | 1.98 | –
16 | CCc1cc(-c2ccc(C(C)(C)C)cc2)ccc1N=CN(C)CC [Compound 7] | 2.66 | –
17 | Cc1cc(-c2ccc(C(C)(C)C)cc2)c(C)cc1N=CN1CCCCC1C (stereo not shown) [Compound 117] | 3.02 | –
18 | CCN(C)C=Nc1ccc(-c2ccc(OC)c(OC)c2)cc1Cl [Compound 74] | 1.54 | –
19 | CCN(C)C=Nc1ccc(-c2cccc(Cl)c2)c(Cl)c1 [Compound 96] | 1.92 | –
20 | CCCN(C)C=Nc1cc(C)c(-c2ccc(C(F)(F)F)c(Cl)c2)cc1C [Compound 143] | 2.69 | –
21 | CCN(C)C=Nc1cc(C)c(-c2ccc(S(=O)(=O)N(C)C)cc2)cc1C [Compound 173] | 1.76 | –

Row | Structure (SMILES) | log p (HCOOH) [1] | further results
22 | Cc1cc(-c2ccc(Cl)cc2)c(C)cc1N=C1NCCCN1 [Compound 122] | 2.08 | –
23 | CCN(C)C=Nc1cc(C)c(-c2ccc(Cl)c(Cl)c2)cc1C [Compound 44] | 2.27 | –
24 | CCN(C)C=Nc1ccc(-c2ccc(C(C)(C)C)cc2)cc1Cl [Compound 1] | 2.44 | –
25 | CCN(C)C=Nc1cc(C)c(-c2ccc(C[Si](C)(C)C)cc2)cc1C [Compound 166] | 3.18 | –
26 | CCN(C)C=Nc1ccc(-c2ccc(F)c(C)c2)cc1Cl [Compound 67] | 2.10 | –
27 | CCN(C)C=Nc1ccc(-c2ccc(Cl)c(C(F)(F)F)c2)cc1F [Compound 20] | 2.15 | –
28 | CCN(C)C=Nc1ccc(-c2ccc(OC)c(C)c2)cc1Cl [Compound 115] | 1.86 | –
29 | CCN(C)C=Nc1cc(C)c(-c2ccc(CC(C)C)cc2)cc1C [Compound 162] | 2.84 | –
30 | CCc1cc(-c2ccc(OC)cc2)ccc1N=CN(C)CC [Compound 58] | 1.90 | –
31 | CCN(C)C=Nc1cc(C)c(-c2ccc(Br)cc2)cc1C [Compound 175] | 2.20 | –
32 | CCN(C)C=Nc1cc(C)c(-c2ccc(Cl)c(C(F)(F)F)c2)cc1Cl [Compound 107] | 2.30 | –
33 | CCN(C)C=Nc1cc(C)c(-c2ccc(F)c(F)c2)cc1C [Compound 46] | 1.98 | –
34 | CCN(C)C=Nc1cc(C)c(-c2ccc(OC(C)C)c(F)c2)cc1C [Compound 172] | 2.37 | –
35 | CCN(C)C=Nc1cc(C)c(-c2ccc(C(C)(CC)OC)cc2)cc1C (stereo not shown) [Compound 159] | 2.38 | –
36 | CCN(C)C=Nc1ccc(-c2ccc(Cl)c(C(F)(F)F)c2)cc1C [Compound 16] | 2.28 | –
37 | Cc1cc(-c2ccc(C(C)(C)C)cc2)c(C)cc1N=C1CCCCN1 [Compound 121, 4′-tert-butyl-2,5-dimethyl-N-[piperidin-2-ylidene]biphenyl-4-amine] | – | chromatographic logP [2]: 2.6; chromatographic logP [3]: 2.6
38 | CCN(C)C=Nc1cc(C)c(-c2cccc(C(C)C)c2)cc1C [Compound 178] | 2.42 | –
39 | CCN(C)C=Nc1ccc(-c2ccc(C(C)=NOC)cc2)cc1C(F)(F)F [Compound 78] | 2.24 | –
40 | CCN(C)C=Nc1ccc(-c2ccc(COC)cc2)cc1C [Compound 37] | 1.59 | –
41 | CCN(C)C=Nc1ccc(-c2ccc(C(C)(C)C)cc2)cc1F [Compound 6] | 2.29 | –
42 | CCN(C)C=Nc1cc(C)c(-c2ccc(Cl)c(C(F)(F)F)c2)cc1C [Compound 17] | 2.40 | –

Row | Structure (SMILES) | log p (HCOOH) [1] | further results
43 | CCc1cc(-c2cc(OC)c(OC)c(OC)c2)ccc1N=CN(C)CC [Compound 50] | 1.69 | –
44 | CCN(C)C=Nc1ccc(-c2ccc(Oc3ccccc3)cc2)cc1Cl [Compound 71] | 2.45 | –
45 | CCN(C)C=Nc1cc(C)c(-c2ccc(C(C)(C)C)cc2)cc1Cl [Compound 106] | 2.71 | –
46 | CCN(C)C=Nc1ccc(-c2ccc(F)c(Cl)c2)cc1Cl [Compound 3] | 1.92 | –
47 | CCN(C)C=Nc1cc(C)c(-c2ccc(S(=O)(=O)C(F)(F)F)cc2)cc1C [Compound 174] | 2.21 | –
48 | Cc1cc(-c2ccc(C(C)(C)C)cc2)ccc1N=C1CCCCN1 [Compound 138] | 2.45 | –
49 | CCN(C)C=Nc1cc(C)c(-c2ccc(OC(C)C)c(Cl)c2)cc1C [Compound 171] | 2.62 | –
50 | CCN(C)C=Nc1cc(C)c(-c2ccc(OC)c(C)c2)cc1C [Compound 114] | 2.05 | –
51 | CCN(C)C=Nc1cc(C)c(-c2ccc(C(C)C)cc2)cc1C [Compound 155] | 2.34 | –
52 | Cc1cc(-c2ccc(C(F)(F)F)c(Cl)c2)c(C)cc1N=CN1CCCCC1 [Compound 145] | 2.78 | –
53 | CCN(C)C=Nc1ccc(-c2ccc(F)cc2)cc1C [Compound 126] | 1.84 | –
54 | CCN(C)C=Nc1cc(C)c(-c2ccc(Cl)cc2)cc1C [Compound 125] | 2.18 | –
55 | CCN(C)C=Nc1ccc(-c2ccc(Cl)cc2Cl)cc1F [Compound 86] | 2.05 | –
56 | CCN(C)/C=N/c1cc(C)c(-c2ccc(C(C)(C)C)cc2)cc1C [Compound 8, N′-(4′-tert-butyl-2,5-dimethylbiphenyl-4-yl)-N-ethyl-N-methylimidoformamide] | – | chromatographic logP [2]: 2.67; chromatographic logP [3]: 2.67
57 | CCN(C)C=Nc1ccc(-c2ccc(F)c(F)c2)cc1Cl [Compound 68] | 1.83 | –
58 | CCN(C)C=Nc1ccc(-c2ccc(Oc3ccccc3)cc2)cc1C(F)(F)F [Compound 89] | 2.65 | –
59 | CCc1cc(-c2ccc(OC)c(OC)c2)ccc1N=CN(C)CC [Compound 62] | 1.68 | –
60 | CCN(C)C=Nc1ccc(-c2ccc(C=NOC)cc2)cc1C(F)(F)F [Compound 76] | 2.01 | –
61 | Cc1ccc(-c2cc(C)c(N=CN3CCCCC3)cc2C)cc1Cl [Compound 149] | 2.53 | –
62 | CCc1cc(-c2ccc(Cl)c(F)c2)ccc1N=CN(C)CC [Compound 52] | 2.31 | –
63 | CCN(C)C=Nc1ccc(-c2ccc(C(C)=NOC)cc2)cc1Cl [Compound 65] | 2.00 | –

Row | Structure (SMILES) | log p (HCOOH) [1] | further results
64 | Cc1cc(-c2ccc(F)cc2)c(C)cc1N=C1NCCN1 [Compound 124] | 1.72 | –
65 | C=CCN(C)C=Nc1cc(C)c(-c2ccc(C(F)(F)F)c(Cl)c2)cc1C [Compound 144] | 2.70 | –
66 | CCN(C)C=Nc1ccc(-c2ccc(Oc3ccccc3)cc2)cc1F [Compound 90] | 2.20 | –
67 | CCN(C)C=Nc1ccc(-c2ccc(Cl)cc2C)cc1C [Compound 111] | 2.23 | –
68 | CCN(C)C=Nc1ccc(-c2ccc(F)cc2)cc1F [Compound 15] | 1.50 | –
69 | CCN(C)C=Nc1ccc(-c2ccc(OCc3ccccc3)cc2)cc1F [Compound 92] | 2.27 | –
70 | CCN(C)C=Nc1ccc(-c2ccc(Br)cc2)cc1C(F)(F)F [Compound 80] | 2.24 | –
71 | COc1ccc(-c2cc(OC)c(N=CN(C)C(C)C)cc2OC)cc1Cl [Compound 102] | 1.95 | –
72 | C=CCN(C)C=Nc1cc(C)c(-c2ccc([Si](C)(C)C)cc2)cc1C [Compound 153] | 3.08 | –
73 | CCN(C)C=Nc1cc(C)c(-c2ccc(C(C)(C)C)c(Br)c2)cc1C [Compound 164] | 3.13 | –
74 | C=CCN(C)C=Nc1cc(C)c(-c2ccc(C(C)C)cc2)cc1C [Compound 157] | 2.60 | –
75 | CCC(C)c1ccc(-c2cc(C)c(N=CN(C)CC)cc2C)cc1 (stereo not shown) [Compound 163] | 2.92 | –
76 | CCc1cc(-c2ccc(F)c(Cl)c2)ccc1N=CN(C)CC [Compound 10] | 2.17 | –
77 | CCN(C)C=Nc1ccc(-c2ccc(Cl)c(Cl)c2)cc1Cl [Compound 66] | 2.25 | –
78 | CCN(C)C=Nc1cc(OC)c(-c2ccc(C)cc2)cc1OC [Compound 98] | 1.89 | –
79 | CCN(C)C=Nc1ccc(-c2ccc(COC)cc2)cc1Cl [Compound 73] | 1.65 | –
80 | CCCN(C)C=Nc1cc(C)c(-c2ccc([Si](C)(C)C)cc2)cc1C [Compound 152] | 3.10 | –
81 | Cc1cc(-c2ccc(C(C)(C)C)cc2)c(C)cc1N=CN(C)C(C)C [Compound 161] | 2.77 | –
82 | CCN(C)C=Nc1cc(C)c(-c2ccc(F)c(C)c2)cc1C [Compound 45] | 2.08 | –
83 | CCc1cc(-c2ccc(Oc3ccccc3)cc2)ccc1N=CN(C)CC [Compound 59] | 2.32 | –
